Assay results published in patent US6908930B2, “4-substituted 7-AZA-indolin-2-ones and their use as protein kinase inhibitors” (Sugen, Inc., priority 1999, dated 2005).
Read-outs that look alike come from different tables or passages of the source.

Columns and labels:
EGFR = target: T1, EGFR (Homo sapiens, UniProt P00533); test: Assay for modulation of EGFR activity (ELISA); assay type: biochemical
T1 construct: A431 […] cell lysate is stored at −80° C; host or cells: A431 cell lysate
Method: Using the following reagents, supplies, and method, the ability of compounds of the invention to modulate the in vitro activity of EGFR can be readily determined in an ELISA.
A431 […] cell lysate is stored at −80° C.
ATP/MnCl2 phosphorylation mix is prepared by adding 300 μL of 1.0 mM ATP and […] of 1M MnCl2 to 9.2 mL of dH2O and mixing. Ten mL of phosphorylation mix is enough for about 6 assay plates. Note that the mixture should be made fresh and kept on ice immediately before use, and that although the preferred ATP is fresh from powder stock, any remaining stock solution of ATP may be frozen at −20° C. in small aliquots to be used at a later time.
(§1) Coat Corning 96 well ELISA plates with 0.5 μg per well with SUMO1 in a volume of 100 μL PBS overnight, at 4° C. Remove unbound SUMO1 from wells by inverting plate to remove liquid. Wash 1× with distilled H2O by filling wells. Pat the plate on a paper towel to remove excess liquid.
Add 150 μL of Blocking Buffer to each well. Incubate for 30 minutes at room temperature, with shaking. Wash plate 3× with deionized water, then once with TBST. Pat plate on a paper towel to remove excess liquid and bubbles.
Dilute lysate in PBS (7 μg lysate/[…]) and add 100 μL of diluted lysate to each well. Shake at room temperature for 60 minutes. Wash 1× with distilled H2O by filling wells. Pat the plate on a paper towel to remove excess liquid.
Add 120 μL TBST to ELISA plate containing captured EGFR.
Dilute drugs/extracts 1:10 (unless specified otherwise) in TBST in 96-well polypropylene plates. (i.e., 10 μL compound+90 μL TBST). Add 13.5 μL diluted drugs/extracts to ELISA plate. […] Incubate for 30 minutes while shaking at room temperature.
Approximately 150 μL final volume in well with 3 uM ATP/5 mM MnCl2 final concentration in well. Incubate 5 minutes while shaking. Note that this is a timed event. It is critical that ATP/MnCl2 phosphorylates the receptor for only 5 minutes. It is best to add the ATP/MnCl2 with an automated 96 place pipettor workstation, then 5 minutes later stop the reaction with EDTA using the same workstation. Alternatively, addition can be performed using a 12 channel pipettor 1 row at a time, leaving 20 seconds between each row so that the reaction may be stopped with EDTA exactly 5 minutes later (this depends on the number of plates being phosphorylated in one batch). Shake between each addition.
[…] This is done using either the same work station as above, or the same timing method employed with the 12 channel pipettor. After the EDTA has been added, shake for 1 minute. Wash 4× with deionized water, twice with TBST.
Add 100 μL per well of anti-phosphotyrosine (1:3000 dilution in TBST). Incubate 30-45 minutes at room temperature, with shaking. Wash 1× with distilled H2O by filling wells. Pat the plate on a paper towel to remove excess liquid.
Incubate 30 minutes at room temperature, with shaking. Wash 1× with distilled H2O by filling wells. Pat the plate on a paper towel to remove excess liquid.
Add 100 μL of ABTS/H2O2 solution to each well. Incubate 5 to 10 minutes while shaking. Remove any bubbles. If necessary stop reaction with the addition of 100 μL of 0.2M HCl per well.
(§2) Read assay on Dynatech MR7000 ELISA reader.

PDGFR = target: T2, PDGFR (Homo sapiens, UniProt P09619); test: Assay for modulation of PDGFR activity (ELISA); assay type: biochemical; settings: read-out: bio PDGFR IC50
T2 construct: expressed in transfected cells; host or cells: NIH3T3
Method: Using the following reagents, supplies, and methods, the ability of the compounds of the invention to modulate the in vitro activity of the PDGFR can be readily determined in an enzyme-linked immunosorbent assay (ELISA).
Monoclonal anti-PDGFR antibody (28D4C10) is stored at −20° C. in 50 mL tubes prior to use.
Lysates from PDGFR-β expressing NIH3T3 cells are obtained and stored at −80° C. in 1 mL aliquots. PDGFR-β expression in eukaryotic cells is well known in the art. Lysates are prepared by the following method. Place carrier dishes in ice trays, and after cooling, remove the media and replace with ice cold PBS. Remove the PBS and repeat. […] Take up lysate with a pipettor and add to a 30 mL centrifuge tube on ice. Vortex the tubes for 30-60 seconds and then centrifuge for 10 minutes at 7000 rpm in a J-20 rotor which has been precooled to below 0° C. Recover the supernatants and combine them in a 250 mL tube and place on ice. Perform protein determination to measure the total quantity of protein per mL of solution. Aliquot the lysate into 1 mL fractions and store at −80° C.
as §1, with “28D4C10 antibody” for “with SUMO1”, “μl” for “μL”, “and remove” for “Remove”, “antibody, 28D4C10,” for “SUMO1”
Add 150 μL of Blocking Buffer to each well. Incubate for 30 minutes at room temperature, with shaking and wash plate 3× with deionized water, then once with TBST. Pat plate on a paper towel to remove excess liquid and bubbles
Dilute lysate in PBS (10 mg lysate/100 μL PBS). Add 100 μL of diluted lysate to each well. Shake at room temperature for 60 min. Wash plate 3× with deionized water, then once with TBST. Pat plate on a paper towel to remove excess liquid and bubbles.
Add 80 μL Kinase Buffer to ELISA plate containing captured PDGFR.
Dilute drugs/extracts 1:10 (unless specified otherwise) in TBS+10% DMSO in 96-well polypropylene plates. (i.e., 10 μL compound+90 μL (TBS+10% DMSO)). Add 10 μL diluted drugs/extracts to ELISA plate. […] Incubate for 30 minutes while shaking at room temperature.
After 30 minutes stop reaction with addition of 10 μL of 200 mM EDTA pH 8.0 for 20 mM final in well. Wash 4× with deionized water, twice with TBST.
Incubate 30-45 minutes at room temperature, with shaking. Wash plate 3× with deionized water, then once with TBST. Pat plate on a paper towel to remove excess liquid and bubbles.
Incubate 30 minutes at room temperature with shaking. Wash plate 3× with deionized water, then once with TBST. Pat plate on a paper towel to remove excess liquid and bubbles.
Add 100 μL of ABTS/H2O2 solution to each well. Incubate 10 to 30 minutes while shaking. Remove any bubbles. If necessary stop reaction with the addition of 100 μL of 0.2M HCl per well
as §2

T1 sequence (P00533 25-1210): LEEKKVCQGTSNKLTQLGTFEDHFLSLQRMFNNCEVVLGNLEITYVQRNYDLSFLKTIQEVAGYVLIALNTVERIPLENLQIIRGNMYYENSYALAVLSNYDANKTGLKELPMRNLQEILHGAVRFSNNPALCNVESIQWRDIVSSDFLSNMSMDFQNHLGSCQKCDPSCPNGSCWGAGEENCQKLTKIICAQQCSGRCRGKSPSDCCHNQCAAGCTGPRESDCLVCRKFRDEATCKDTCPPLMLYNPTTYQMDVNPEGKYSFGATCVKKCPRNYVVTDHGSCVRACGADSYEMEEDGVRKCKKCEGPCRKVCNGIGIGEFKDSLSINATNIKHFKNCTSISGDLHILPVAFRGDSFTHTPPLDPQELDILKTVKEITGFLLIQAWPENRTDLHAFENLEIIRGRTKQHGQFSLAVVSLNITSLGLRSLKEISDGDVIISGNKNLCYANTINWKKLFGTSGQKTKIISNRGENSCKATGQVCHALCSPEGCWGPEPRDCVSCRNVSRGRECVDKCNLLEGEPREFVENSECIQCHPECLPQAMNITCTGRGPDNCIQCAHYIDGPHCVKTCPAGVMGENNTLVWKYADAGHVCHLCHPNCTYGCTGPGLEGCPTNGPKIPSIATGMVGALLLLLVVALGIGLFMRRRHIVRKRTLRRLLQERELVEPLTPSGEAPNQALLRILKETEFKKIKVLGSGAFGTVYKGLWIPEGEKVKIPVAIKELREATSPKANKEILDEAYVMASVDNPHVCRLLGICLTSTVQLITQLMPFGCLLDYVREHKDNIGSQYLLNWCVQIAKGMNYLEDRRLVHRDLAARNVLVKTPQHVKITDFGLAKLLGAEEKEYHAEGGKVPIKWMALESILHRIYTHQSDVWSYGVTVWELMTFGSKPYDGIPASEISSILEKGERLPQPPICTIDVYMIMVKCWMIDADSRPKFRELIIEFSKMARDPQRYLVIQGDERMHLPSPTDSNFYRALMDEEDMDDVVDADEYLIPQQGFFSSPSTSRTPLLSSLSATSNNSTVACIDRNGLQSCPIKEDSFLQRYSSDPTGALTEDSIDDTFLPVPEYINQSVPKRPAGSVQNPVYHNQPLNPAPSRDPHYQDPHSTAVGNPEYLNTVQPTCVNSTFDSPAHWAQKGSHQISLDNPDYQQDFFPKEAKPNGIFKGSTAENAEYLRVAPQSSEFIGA
T2 sequence (P09619 33-1106, species assumed): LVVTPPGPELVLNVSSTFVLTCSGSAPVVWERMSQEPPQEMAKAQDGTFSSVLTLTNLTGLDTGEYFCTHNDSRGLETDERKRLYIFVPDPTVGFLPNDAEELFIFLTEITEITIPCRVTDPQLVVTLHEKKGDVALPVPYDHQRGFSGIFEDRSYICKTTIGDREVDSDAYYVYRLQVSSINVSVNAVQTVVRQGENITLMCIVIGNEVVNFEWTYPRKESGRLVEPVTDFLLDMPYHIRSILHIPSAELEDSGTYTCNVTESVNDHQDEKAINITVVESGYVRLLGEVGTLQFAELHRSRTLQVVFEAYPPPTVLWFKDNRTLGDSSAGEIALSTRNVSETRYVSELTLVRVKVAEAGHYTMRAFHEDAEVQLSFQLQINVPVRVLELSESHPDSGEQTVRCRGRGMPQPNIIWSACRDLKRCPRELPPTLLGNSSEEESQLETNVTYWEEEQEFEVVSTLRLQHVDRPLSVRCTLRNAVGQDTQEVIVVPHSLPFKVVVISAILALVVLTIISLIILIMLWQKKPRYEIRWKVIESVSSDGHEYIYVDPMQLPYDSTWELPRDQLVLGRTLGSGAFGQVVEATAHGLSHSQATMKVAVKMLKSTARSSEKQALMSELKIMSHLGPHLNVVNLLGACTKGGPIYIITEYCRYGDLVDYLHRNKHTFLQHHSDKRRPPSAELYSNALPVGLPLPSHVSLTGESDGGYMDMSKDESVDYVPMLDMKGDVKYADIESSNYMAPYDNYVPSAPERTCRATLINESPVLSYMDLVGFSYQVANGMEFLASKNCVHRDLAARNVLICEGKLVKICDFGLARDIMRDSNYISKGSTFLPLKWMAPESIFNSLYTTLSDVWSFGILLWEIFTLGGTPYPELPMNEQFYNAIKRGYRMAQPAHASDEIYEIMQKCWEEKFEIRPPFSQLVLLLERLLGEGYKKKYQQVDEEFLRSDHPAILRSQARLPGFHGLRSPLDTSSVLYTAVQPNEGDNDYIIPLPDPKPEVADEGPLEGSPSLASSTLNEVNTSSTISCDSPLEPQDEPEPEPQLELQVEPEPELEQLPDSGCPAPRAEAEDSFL

SMILES | IC50 (EGFR; read-out: bio EGFR IC50) [nM] | IC50 (PDGFR) [nM] | IC50 (EGFR) [nM]
Cc1[nH]c(/C=C2\C(=O)N(C)c3ncnc(Nc4ccc(F)c(Cl)c4)c32)c(C)c1CCC(=O)O [Formula 40] | 4200 |  | 
CCN1CCN(C(=O)c2cc(C)c(/C=C3\C(=O)Nc4ncnc(Nc5ccc(F)c(Cl)c5)c43)[nH]2)CC1 [Formula 54] | < 156 |  | 
Cc1cc(C(=O)N2CCOCC2)[nH]c1/C=C1\C(=O)Nc2ncnc(NC(C)c3ccccc3)c21 (stereo not shown) [Formula 46] | 1.2 |  | 
Cc1[nH]c(/C=C2\C(=O)Nc3ncnc(Nc4ccc(F)c(Cl)c4)c32)c(C)c1C(=O)N1CCOCC1 [Formula 43] | 860 | > 20000 | 
Cc1cc(C(=O)N2CCOCC2)[nH]c1/C=C1\C(=O)Nc2ncnc(Nc3ccc(F)c(Cl)c3)c21 [Formula 26] |  |  | 160
Cc1[nH]c(C=C2C(=O)Nc3ncnc(Nc4ccc(F)c(Cl)c4)c32)c(C)c1CCC(=O)O [Formula 19, 3-{5-[4-(3-CHLORO-4-FLUORO-PHENYLAMINO)-6-OXO-6,7-DIHYDRO-PYRROLO[2,3-D]PYRIMIDIN-5-YLIDENEMETHYL]-2,4-DIMETHYL-1H-PYRROL-3-YL}-PROPIONIC ACID] | 170 | 12800 | 
Cc1cc(C(=O)O)[nH]c1/C=C1\C(=O)Nc2ncnc(Nc3ccc(F)c(Cl)c3)c21 [Formula 47] | 36 |  | 
Cc1[nH]c(/C=C2\C(=O)Nc3ncnc(Nc4ccc(F)c(Cl)c4)c32)c(C)c1CCC(=O)N1CCCC1 [Formula 24] | 890 | > 20000 | 
Cc1c(C(=O)N2CCN(C)CC2)c[nH]c1/C=C1\C(=O)Nc2ncnc(Nc3ccc(F)c(Cl)c3)c21 [Formula 29] |  |  | 450
Cc1[nH]c(/C=C2\C(=O)Nc3ncnc(Nc4ccc(F)c(Cl)c4)c32)c(C)c1CCC(=O)N1CCOCC1 [Formula 30] | 770 | > 20000 | 
Cc1[nH]c(/C=C2\C(=O)N(C)c3ncnc(Nc4ccc(F)c(Cl)c4)c32)c(C)c1CCCN1CCOCC1 [Formula 44] | > 20000 |  | 
Cc1cc(CCC(=O)O)[nH]c1/C=C1\C(=O)N(C)c2ncnc(Nc3ccc(F)c(Cl)c3)c21 [Formula 42] | 10400 |  | 
Cc1cc(C)c(/C=C2\C(=O)N(C)c3ncnc(Nc4ccc(F)c(Cl)c4)c32)[nH]1 [Formula 38] | 5600 |  | 
Cc1cc(C(=O)N2CC(C)N(C)C(C)C2)[nH]c1/C=C1\C(=O)Nc2ncnc(Nc3ccc(F)c(Cl)c3)c21 (stereo not shown) [Formula 53] | < 156 |  | 
O=C1Nc2ncnc(Nc3ccc(F)c(Cl)c3)c2/C1=C/c1ccc(C(=O)N2CCOCC2)[nH]1 [Formula 33] | 900 | > 20000 | 
Cc1[nH]c(/C=C2\C(=O)Nc3ncnc(Nc4ccc(F)c(Cl)c4)c32)c(C)c1C(=O)N1CCN(C)CC1 [Formula 41] | 540 | > 20000 | 
CN1CCN(C(=O)c2ccc(/C=C3\C(=O)Nc4ncnc(Nc5ccc(F)c(Cl)c5)c43)[nH]2)CC1 [Formula 45] | 50 | > 20000 | 
Cc1cc(C(=O)N2CCN(C)CC2)[nH]c1/C=C1\C(=O)Nc2ncnc(Nc3ccc(F)c(Cl)c3)c21 [Formula 39] |  |  | 4
